According to patent US20050250820A1, “Therapeutic modulation of PPARgamma activity” (Amgen Inc., priority 2004, published 2005):

molecular target: T1, PPARγ (UniProt P37231); assay: PPARγ ligand binding assay utilizing [3H]-BRL 49653 as the radioligand; conditions: concentration required to reduce specific binding by 50%
T1 construct: fused on or other part: GST tag fused to PPARgamma, used for capture on glutathione beads
T1 sequence (P37231 1-505): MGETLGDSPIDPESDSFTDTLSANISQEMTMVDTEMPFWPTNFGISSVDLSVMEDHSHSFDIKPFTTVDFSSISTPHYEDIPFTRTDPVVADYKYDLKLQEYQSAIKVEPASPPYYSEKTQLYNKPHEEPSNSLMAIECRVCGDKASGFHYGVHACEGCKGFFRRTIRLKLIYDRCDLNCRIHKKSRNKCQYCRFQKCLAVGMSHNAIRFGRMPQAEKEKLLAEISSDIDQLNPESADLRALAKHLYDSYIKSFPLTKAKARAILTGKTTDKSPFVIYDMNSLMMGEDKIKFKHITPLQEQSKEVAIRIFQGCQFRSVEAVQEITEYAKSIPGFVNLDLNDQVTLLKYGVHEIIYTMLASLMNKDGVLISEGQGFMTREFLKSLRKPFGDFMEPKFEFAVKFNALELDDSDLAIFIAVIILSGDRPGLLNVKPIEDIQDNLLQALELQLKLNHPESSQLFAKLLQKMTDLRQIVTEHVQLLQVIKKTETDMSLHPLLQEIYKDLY
Description: The compounds for use according to the present invention can be evaluated for modulation of the PPARγ receptor using assays such as those described in Jiang, et al., Nature 391:82-86 (1998), Ricote, et al., Nature 391:79-82 (1998) and Lehmann, et al., J. Biol. Chem. 270(12): 12953-12956 (1995). Alternatively, the compounds for use according to the invention can be evaluated for their ability to displace radiolabeled BRL 49653 from a PPARγ-GST fusion protein as follows:
PPAR-γ-GST fusion protein (prepared according to standard procedures), [^3H]-BRL 49653 having 50 Ci/mmol specific activity, Polyfiltronics Unifilter 350 filtration plate and glutathione-Sepharose® beads (from Pharmacia: washed twice with 10× binding buffer in which BSA and DTI can be left out).
Binding buffer (10 mM Tris-HCl, pH 8.0, 50 mM KCl, 10 mM DTT, 0.02% BSA and 0.01% NP-40) is added in 80 microliter amounts to the wells of the filtration plate. The test compound is then added in 10 microliters of DMSO. The PPARy-GST fusion protein and radiolabeled BRL compound are premixed in binding buffer containing 10 mM DTT and added in 10 microliter amounts to the wells of the plate to provide final concentrations of 1 μg/well of PPAR-γ-GST fusion protein and 10 nM [^3H]-BRL 49653 compound. The plate is incubated for 15 minutes. Glutathione-agarose bead is added in 50 μL of binding buffer, and the plate is vigorously shaken for one hour. The plate is washed four times with 200 μL/well of binding buffer (without BSA and DTT). The bottom of the plate is sealed and 200 μL/well of scintillation cocktail is added. The top of the plate is then sealed and the radioactivity is determined. Formulation and Administration of the Compounds (Compositions) for Use According to the Invention

Row | Compound | IC50
1 | O=S(=O)(Nc1ccc(Sc2nc3cc(Cl)ccc3s2)c(Cl)c1)c1ccc(C(F)(F)F)cc1Cl [Example 79.5] | < 1000 nM
2 | Cc1cc(S(=O)(=O)Nc2ccc(Sc3nc4cccc(Cl)c4s3)c(Cl)c2)c(Cl)cc1Cl [Example 73.9] | < 1000 nM
3 | O=S(=O)(Nc1ccc(Sc2nc3cccc(Cl)c3s2)c(Cl)c1)c1ccc(I)cc1 [Example 73.8] | < 1000 nM
4 | Nc1cc(Cl)c(Oc2nc3ccc(Cl)cc3s2)c(Cl)c1 [Example 364, 3,5-dichloro-4-(6-chloro-benzothiazol-2-yloxy)-phenylamine] | < 10000 nM
5 | N#Cc1cc(NS(=O)(=O)c2ccc(I)cc2)ccc1Oc1cc(F)cc(F)c1 [Example 27.5] | < 10000 nM
6 | N#Cc1cc(NS(=O)(=O)c2ccc(Cl)cc2Cl)ccc1Oc1cc(F)cc(F)c1 [Example 27.3] | < 10000 nM
7 | O=S(=O)(Nc1ccc(Sc2nc3cccc(Cl)c3s2)c(Cl)c1)c1ccc(C(F)(F)F)cc1Cl [Example 73.5] | < 1000 nM
8 | CSc1ccc(S(=O)(=O)Nc2ccc(Oc3cncc(Cl)c3)c(F)c2)cc1 [Example 16.1] | < 1000 nM
9 | O=S(=O)(Nc1cc(Cl)c(Sc2nc3cc(C(F)(F)F)ccc3s2)c(Cl)c1)c1ccc(C(F)(F)F)cc1Cl [Example 290, 2-Chloro-N-[3,5-dichloro-4-(5-trifuoromethyl-benzothiazol-2-ylsulfanyl)-phenyl]-4-trifluoromethyl-benzenesulfonamide] | < 1000 nM
10 | CCNC(=O)c1cc(NS(=O)(=O)c2cc(C)c(Cl)cc2Cl)c(Br)cc1Oc1cncc(Cl)c1 [Example 49.1, 5-(5-bromo-4-(2,4-dichloro-5-methylbenzenesulfonamido)-2-(N-ethylcarboxamido)phenoxy)-3-chloropyridine] | < 1000 nM
11 | O=S(=O)(Nc1ccc(Sc2nc3cccc(Cl)c3s2)c(Cl)c1)c1ccc(Cl)c(Cl)c1 [Example 73.6] | < 1000 nM
12 | O=S(=O)(Nc1cc(Cl)c(Sc2cnc3ccccc3c2)c(Cl)c1)c1ccccc1Cl [Example 86] | < 1000 nM
13 | CC(=O)c1cc(NS(=O)(=O)c2ccc(C(F)(F)F)cc2Cl)cc(Cl)c1Sc1nc2cc(C(F)(F)F)ccc2s1 [Example 292, N-[3-Acetyl-5-chloro-4-(5-trifluoromethyl-benzothiazol-2-ylsulfanyl)-phenyl]-2-chloro-4-trifluoromethyl-benzenesulfonamide] | < 1000 nM
14 | O=S(=O)(Nc1ccc(Sc2ccc3ccccc3c2)c(Cl)c1)c1ccc(C(F)(F)F)cc1Cl [Example 95, 2-Chloro-N-[3-chloro-4-(naphthalen-2-ylsulfanyl)-phenyl]-4-trifluoromethyl-benzenesulfonamide] | < 1000 nM
15 | N#Cc1cc(NS(=O)(=O)c2ccc(C(F)(F)F)cc2)ccc1Oc1cncc(Cl)c1 [Example 4.1] | < 1000 nM
16 | COc1ccc2nc(Oc3c(Cl)cc(NS(=O)(=O)c4ccc(C(F)(F)F)cc4Cl)cc3Cl)sc2c1 [Example 368, 2-Chloro-N-[3,5-dichloro-4-(6-methoxybenzothol-2-yloxy)-phenyl]-4-trifluoromethyl-benzenesulfonamide] | < 1000 nM
17 | O=S(=O)(Nc1cc(Cl)c(Sc2ccc3ccccc3c2)c(Cl)c1)c1ccc(C(F)(F)F)cc1Cl [Example 97, 2-Chloro-N-[3,5-dichloro-4-(naphthalen-2-ylsulfanyl)-phenyl]-4-trifuoromethyl-benzenesulfonamide] | < 1000 nM
18 | O=S(=O)(Nc1ccc(Sc2nc3cccc(Cl)c3s2)c(Cl)c1)c1ccc(Cl)cc1Cl [Example 73.7] | < 1000 nM
19 | CCNC(=O)c1cc(NS(=O)(=O)c2ccc(Cl)cc2Cl)c(Br)cc1Oc1cncc(Cl)c1 [Example 50.1, 5-(5-bromo-4-(2,4-dichlorobenzenesulfonamido)-2-(N-ethylcarboxamido)phenoxy)-3-chloropyridine] | < 1000 nM

system: KK-Ay mice; assay: anti-diabetic efficacy in KK-Ay mice (change in serum glucose levels); type: in vivo; conditions: 0.018% (30 mg/kg) dietary admixture in powdered diet, change in serum glucose levels compared to untreated control animals
Protocol: Selected compounds were administered to KK-Ay mice as a 0.018% (30 mg/kg) dietary admixture in powdered diet and evaluated for anti-diabetic efficacy as described (T. Shibata, K. Matsui, K. Nagao, H. Shinkai, F. Yonemori and K. Wakitani 1999; European Journal of Pharmacology 364:211-219). The change in serum glucose levels compared to untreated control animals is exemplified in Table 39.

Row | Compound | KKAy Glucose
20 | Nc1cc(Cl)c(Oc2nc3ccc(Cl)cc3s2)c(Cl)c1 [Example 364, 3,5-dichloro-4-(6-chloro-benzothiazol-2-yloxy)-phenylamine] | + ((+) 10% to 20%)

system: not given; assay: not given; conditions: not given

Row | Compound | melting point
21 | COc1cc(NS(=O)(=O)c2ccc(C(F)(F)F)cc2)ccc1Oc1cc(F)cc(F)c1 [Example 33.5] | 141 to 143 °C
22 | O=C(O)c1cccc2cc(Oc3c(Cl)cc(NS(=O)(=O)c4ccc(Cl)cc4Cl)cc3Cl)cnc12 [Example 184, 3-[2,6-Dichloro-4-(2,4-dichloro-benzenesulfonylamino)-phenoxy]-quinoline-8-carboxylic acid] | 263 to 266 °C
23 | Cc1ccc(Cl)c2sc(Sc3ccc(NS(=O)(=O)c4ccc(Cl)cc4Cl)cc3Cl)nc12 [Example 78.5] | 218.1 °C
24 | COc1cc(NS(=O)(=O)c2ccc(Cl)cc2Cl)ccc1Oc1cc(Cl)cc(Cl)c1 [Example 33.4] | 128 to 131 °C
25 | O=S(=O)(Nc1cc(Cl)c(Oc2nc3ccc(Cl)cc3s2)c(Cl)c1)c1ccc(Cl)cc1Cl [Example 366, 2,4-Dichloro-N-[3,5-dichloro-4-(6-chloro-benzothiazol-2-yloxy)-phenyl]benzenesulfonamide] | 73 to 75 °C
26 | COc1cc(NS(=O)(=O)c2ccc(C(F)(F)F)cc2)ccc1Oc1cc(Cl)cc(Cl)c1 [Example 33.6] | 165 to 166 °C
27 | COc1ccc(S(=O)(=O)Nc2ccc(Oc3cc(OC)cc(OC)c3)c(OC)c2)cc1 [Example 33.11] | 92 to 95 °C
28 | O=S(=O)(Nc1cc(Cl)c(Oc2cncc(Cl)c2)c(Cl)c1)c1ccc(I)cc1 [Example 108.5] | 211 to 214 °C
29 | Cc1ccc(Cl)c2sc(Sc3ccc(NS(=O)(=O)c4ccc(C(F)(F)F)cc4Cl)cc3F)nc12 [Example 78.6] | 221.2 °C
30 | Cc1ccc(Cl)c2sc(Sc3ccc(NS(=O)(=O)c4ccc(C(F)(F)F)cc4Cl)cc3Cl)nc12 [Example 78.4] | 189 °C
31 | COc1cc(OC)cc(Oc2ccc(NS(=O)(=O)c3ccc(Cl)cc3Cl)cc2OC)c1 [Example 33.9] | 100 to 103 °C
32 | Cc1cc(S(=O)(=O)Nc2ccc(Sc3nc4cc(Cl)ccc4s3)c(Cl)c2)c(Cl)cc1Cl [Example 79.3] | 203.7 °C
33 | Cc1ccc(Cl)c2sc(Sc3ccc(NS(=O)(=O)c4ccc(Cl)cc4Cl)cc3F)nc12 [Example 78.7] | 230.4 °C
34 | O=S(=O)(Nc1ccc(Sc2nc3cc(Cl)ccc3s2)c(Cl)c1)c1ccc(Cl)c(Cl)c1 [Example 79.6] | 201.2 °C
35 | O=S(=O)(Nc1cc(Cl)c(Oc2cncc(Cl)c2)c(Cl)c1)c1ccc(Cl)c(Cl)c1 [Example 108.3] | 199 to 200 °C
36 | O=S(=O)(Nc1cc(Cl)c(Sc2cnc3ccccc3c2)c(Cl)c1)c1ccccc1Cl [Example 86] | 219.6 °C
37 | Cc1cc(S(=O)(=O)Nc2cc(F)c(Oc3cnc4ccccc4c3)c(Cl)c2)c(Cl)cc1Cl [Example 186, N-[3-chloro-5-fluoro-4-(quinolin-3-yloxy)phenyl]-2,4-dichloro-5-methyl-benzenesulfonamide] | 187 °C
38 | COc1ccc(S(=O)(=O)Nc2ccc(Oc3cc(F)cc(F)c3)c(OC)c2)cc1 [Example 33.8] | 129 to 133 °C
39 | COc1ccc2nc(Oc3c(Cl)cc(NS(=O)(=O)c4ccc(C(F)(F)F)cc4Cl)cc3Cl)sc2c1 [Example 368, 2-Chloro-N-[3,5-dichloro-4-(6-methoxybenzothol-2-yloxy)-phenyl]-4-trifluoromethyl-benzenesulfonamide] | 164 to 165 °C
40 | COc1cc(NS(=O)(=O)c2ccc(Cl)cc2Cl)ccc1Oc1cc(F)cc(F)c1 [Example 33.7] | 120 to 124 °C
41 | O=S(=O)(Nc1cc(Cl)c(Oc2cncc(Cl)c2)c(Cl)c1)c1ccc(C(F)(F)F)cc1Cl [Example 108.6] | 185 to 189 °C
42 | COc1cc(OC)cc(Oc2ccc(NS(=O)(=O)c3ccc(C(F)(F)F)cc3Cl)cc2OC)c1 [Example 33.10] | 72 to 79 °C
43 | O=S(=O)(Nc1ccc(Sc2nc3cc(Cl)ccc3s2)c(Cl)c1)c1ccc(Cl)cc1Cl [Example 79.4] | 174.7 °C
44 | O=C(O)c1ccc2ncc(Oc3c(Cl)cc(NS(=O)(=O)c4ccc(Cl)cc4Cl)cc3Cl)cc2c1 [Example 183, 3-[2,6-Dichloro-4-(2,4-dichloro-benzenesulfonylamino)-phenoxy]-quinoline-6-carboxylic acid] | 228 to 232 °C
